Measured values published in US20240383872A1, “NOVEL PYRIDINE AND PYRAZINE COMPOUNDS AS INHIBITORS OF CANNABINOID RECEPTOR 2” (HOFFMANN-LA ROCHE INC., priority 2018, published 2024).

What follows are molecules tested against human CB2 receptor (CNR2) (Homo sapiens (Human), UniProt P34972) (assay: Radioligand binding assay, human CB2). Settings: HEK cell membranes expressing human CNR2, [3H]-CP-55,940 radioligand.
Protocol: The affinity of the compounds of the invention for cannabinoid CB1 receptors was determined using recommended amounts of membrane preparations (PerkinElmer) of human embryonic kidney (HEK) cells expressing the human CNRI or CNR2 receptors in conjunction with 1.5 or 2.6 nM [3H]-CP-55,940 (Perkin Elmer) as radioligand, respectively. Binding was performed in binding buffer (50 mM Tris, 5 mM MgCl2, 2.5 mM EDTA, and 0.5% (wt/vol) fatty acid free BSA, pH 7.4 for CB1 receptor and 50 mM Tris, 5 mM MgCl2, 2.5 mM EGTA, and 0.1% (wt/vol) fatty acid free BSA, pH 7.4 for CB2 receptor) in a total volume of 0.2 ml for 1 h at 30° C. shaking. The reaction was terminated by rapid filtration through microfiltration plates coated with 0.5% polyethylenimine (UniFilter GF/B filter plate; Packard). Bound radioactivity was analyzed for Ki using nonlinear regression analysis (Activity Base, ID Business Solution, Limited), with the Kd values for [3H]CP55,940 determined from saturation experiments. The compounds of formula (I) show an excellent affinity for the CB2 receptor.
The compounds according to formula (I) have an activity in the above assay (Ki) between 0.5 nM and 10 μM. Particular compounds of formula (I) have an activity in the above assay (Ki) between 0.5 nM and 3 μM. Other particular compounds of formula (I) have an activity in the above assay (Ki) between 0.5 nM and 100 nM.

Sequence of human CB2 receptor (CNR2) (P34972 whole entry): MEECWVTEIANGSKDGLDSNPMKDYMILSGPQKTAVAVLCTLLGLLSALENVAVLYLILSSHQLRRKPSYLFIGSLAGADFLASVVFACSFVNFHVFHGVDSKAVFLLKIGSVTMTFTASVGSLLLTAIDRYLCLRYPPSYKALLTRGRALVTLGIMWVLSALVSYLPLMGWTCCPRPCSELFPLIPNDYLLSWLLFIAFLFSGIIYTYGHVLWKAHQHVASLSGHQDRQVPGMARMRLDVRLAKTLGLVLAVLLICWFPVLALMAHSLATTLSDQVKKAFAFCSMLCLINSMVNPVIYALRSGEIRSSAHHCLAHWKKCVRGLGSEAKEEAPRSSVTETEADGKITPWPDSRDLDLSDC

Ki	SMILES
165 nM	COC1CN(c2ccc(C(=O)N[C@H](COCCF)C(C)C)nc2OCC2CC2)C1 [Example 30, 6-(Cyclopropylmethoxy)-N-[(2S)-1-(2-fluoroethoxy)-3-methylbutan-2-yl]-5-(3-methoxyazetidin-1-yl) pyridine-2-carboxamide]
15 nM	CC(C)C[C@H](NC(=O)c1ccc(N2CCCC2)c(OCC2CC2)n1)C(=O)OCCF [Example 14, 2-Fluoroethyl N-[6-(cyclopropylmethoxy)-5-(pyrrolidin-1-yl)pyridine-2-carbonyl]-L-leucinate]
46 nM	COC1CN(c2ccc(C(=O)N[C@@H](CC(C)C)C(=O)OCCCF)nc2OCC2CC2)C1 [Example 12, 3-Fluoropropyl N-[6-(cyclopropylmethoxy)-5-(3-methoxyazetidin-1-yl)pyridine-2-carbonyl]-L-leucinate]
2810 nM	COC1CN(c2ccc(C(=O)N[C@@H](C)COCCCF)nc2OCC2CC2)C1 [Example 33, 6-(Cyclopropylmethoxy)-N-[(2S)-1-(3-fluoropropoxy)propan-2-yl]-5-(3-methoxyazetidin-1-yl)pyridine-2-carboxamide]
269 nM	COC1CN(c2ccc(C(=O)N[C@H](COCF)C(C)C)nc2OCC2CC2)C1 [Example 29, 6-(Cyclopropylmethoxy)-N-[(2S)-1-(fluoromethoxy)-3-methylbutan-2-yl]-5-(3-methoxyazetidin-1-yl) pyridine-2-carboxamide]
524 nM	CCC(CC)(NC(=O)c1ccc(N2CC(C)(F)C2)c(OCC2CC2)n1)C(=O)NCCCF [Example 39, 6-(Cyclopropylmethoxy)-5-(3-fluoro-3-methylazetidin-1-yl)-N-(3-(3-fluoropropylcarbamoyl)pentan-3-yl) picolinamide]
70 nM	CC(C)[C@@H](COCF)NC(=O)c1ccc(N2CCCC2)c(OCC2CC2)n1 [Example 19, 6-(Cylopropylmethoxy)-N-[(2S)-1-(fluoromethoxy)-3-methylbutan-2-yl]-5-(pyrrolidin-1-yl)pyridine-2-carboxamide]
2 nM	CCC(CC)(NC(=O)c1ccc(N2CC(OC)C2)c(OCC2CC2)n1)C(=O)OCCF [Example 2, 2-Fluoroethyl 2-{[6-(cyclopropylmethoxy)-5-(3-methoxyazetidin-1-yl)pyridine-2-carbonyl]amino}-2-ethylbutanoate]
33 nM	CCC(CC)(COCF)NC(=O)c1ccc(N2CC(OC)C2)c(OCC2CC2)n1 [Example 34, 6-(Cyclopropylmethoxy)-N-{3-[(fluoromethoxy)methyl]pentan-3-yl}-5-(3-methoxyazetidin-1-yl) pyridine-2-carboxamide]
336 nM	COC1CN(c2ccc(C(=O)N[C@@H](CC(C)C)C(=O)OCF)nc2OCC2CC2)C1 [Example 10, Fluoromethyl N-[6-(cyclopropylmethoxy)-5-(3-methoxyazetidin-1-yl)pyridine-2-carbonyl]-L-leucinate]
15 nM	COC1CN(c2ccc(C(=O)N[C@@H](CC(C)C)C(=O)OCCF)nc2OCC2CC2)C1 [Example 11, 2-Fluoroethyl N-[6-(cyclopropylmethoxy)-5-(3-methoxyazetidin-1-yl)pyridine-2-carbonyl]-L-leucinate]
787 nM	C[C@@H](COCF)NC(=O)c1ccc(N2CCCC2)c(OCC2CC2)n1 [Example 22, 6-(Cyclopropylmethoxy)-N-[(2S)-1-(fluoromethoxy)propan-2-yl]-5-(pyrrolidin-1-yl)pyridine-2-carboxamide]
671 nM	C[C@@H](COCCCF)NC(=O)c1ccc(N2CCCC2)c(OCC2CC2)n1 [Example 24, 6-(Cyclopropylmethoxy)-N-[(2S)-1-(3-fluoropropoxy)propan-2-yl]-5-(pyrrolidin-1-yl)pyridine-2-carboxamide]
68 nM	CCC(CC)(COCCCF)NC(=O)c1ccc(N2CC(OC)C2)c(OCC2CC2)n1 [Example 36, 6-(Cyclopropylmethoxy)-N-{3-[(3-fluoropropoxy)methyl]pentan-3-yl}-5-(3-methoxyazetidin-1-yl)pyridine-2-carboxamide]
1300 nM	COC1CN(c2ccc(C(=O)N[C@@H](COCCF)CC(C)C)nc2OCC2CC2)C1 [Example 38, 6-(Cyclopropylmethoxy)-N-[(2R)-1-(2-fluoroethoxy)-4-methylpentan-2-yl]-5-(3-methoxyazetidin-1-yl) pyridine-2-carboxamide]
18 nM	COC1CN(c2ccc(C(=O)N[C@H](COCCF)CC(C)C)nc2OCC2CC2)C1 [Example 27, 6-(Cyclopropylmethoxy)-N-[(2S)-1-(2-fluoroethoxy)-4-methylpentan-2-yl]-5-(3-methoxyazetidin-1-yl) pyridine-2-carboxamide]

Second part, the molecule before the results:

SMILES	Ki
CC(C)[C@@H](COCCF)NC(=O)c1ccc(N2CCCC2)c(OCC2CC2)n1 [Example 20, 6-(Cyclopropylmethoxy)-N-[(2S)-1-(2-fluoroethoxy)-3-methylbutan-2-yl]-5-(pyrrolidin-1-yl)pyridine-2-carboxamide]	60 nM
CCC(CC)(COCCF)NC(=O)c1ccc(N2CC(OC)C2)c(OCC2CC2)n1 [Example 35, 6-(Cyclopropylmethoxy)-N-{3-[(2-fluoroethoxy)methyl]pentan-3-yl}-5-(3-methoxyazetidin-1-yl) pyridine-2-carboxamide]	62 nM
CC(C)C[C@@H](COCCCF)NC(=O)c1ccc(N2CCCC2)c(OCC2CC2)n1 [Example 18, 6-(Cyclopropylmethoxy)-N-[(2S)-1-(3-fluoropropoxy)-4-methylpentan-2-yl]-5-(pyrrolidin-1-yl) pyridine-2-carboxamide]	40 nM
CCC(CC)(NC(=O)c1ccc(N2CC(OC)C2)c(OCC2CC2)n1)C(=O)OCCCF [Example 3, 3-Fluoropropyl 2-{[6-(cyclopropylmethoxy)-5-(3-methoxyazetidin-1-yl)pyridine-2-carbonyl]amino}-2-ethylbutanoate]	6 nM
COC1CN(c2ccc(C(=O)N[C@H](COCCCF)CC(C)C)nc2OCC2CC2)C1 [Example 28, 6-(Cyclopropylmethoxy)-N-[(2S)-1-(3-fluoropropoxy)-4-methylpentan-2-yl]-5-(3-methoxyazetidin-1-yl) pyridine-2-carboxamide]	31 nM
CCC(CC)(NC(=O)c1ccc(N2CCCC2)c(OCC2CC2)n1)C(=O)OCF [Example 8, 3- Fluoromethyl 2-{[6-(cyclopropylmethoxy)-5-(pyrrolidin-1-yl)pyridine-2-carbonyl]amino}-2-ethylbutanoate]	2 nM
CCC(CC)(NC(=O)c1ccc(N2CCCC2)c(OCC2CC2)n1)C(=O)OCCF [Example 9, 2-Fluoroethyl 2-{[6-(cyclopropylmethoxy)-5-(pyrrolidin-1-yl)pyridine-2-carbonyl]amino}-2-ethylbutanoate]	3 nM
CCC(CC)(NC(=O)c1ccc(N2CC(F)(F)C2)c(OCC2CC2)n1)C(=O)OCCF [Example 5, 2-Fluoroethyl 2-{[6-(cyclopropylmethoxy)-5-(3,3-difluoroazetidin-1-yl)pyridine-2-carbonyl]amino}-2-ethylbutanoate]	7 nM
COC1CN(c2ccc(C(=O)N[C@@H](C)COCCF)nc2OCC2CC2)C1 [Example 32, 6-(Cyclopropylmethoxy)-N-[(2S)-1-(2-fluoroethoxy)propan-2-yl]-5-(3-methoxyazetidin-1-yl)pyridine-2-carboxamide]	3120 nM
CC(C)C[C@@H](COCCF)NC(=O)c1ccc(N2CC(F)(F)C2)c(OCC2CC2)n1 [Example 26, 6-(Cyclopropylmethoxy)-5-(3,3-difluoroazetidin-1-yl)-N-[(2S)-1-(2-fluoroethoxy)-4-methylpentan-2-yl]pyridine-2-carboxamide]	24 nM
CC(C)C[C@H](COCCF)NC(=O)c1ccc(N2CCCC2)c(OCC2CC2)n1 [Example 37, 6-(Cyclopropylmethoxy)-N-[(2R)-1-(2-fluoroethoxy)-4-methylpentan-2-yl]-5-(pyrrolidin-1-yl)pyridine-2-carboxamide]	288 nM
CCC(CC)(NC(=O)c1ccc(N2CC(OC)C2)c(OCC2CC2)n1)C(=O)OCF [Example 1, Fluoromethyl 2-{[6-(cyclopropylmethoxy)-5-(3-methoxyazetidin-1-yl)pyridine-2-carbonyl]amino}-2-ethylbutanoate]	2 nM
CC(C)C[C@@H](COCF)NC(=O)c1ccc(N2CCCC2)c(OCC2CC2)n1 [Example 16, 6-(Cyclopropylmethoxy)-N-[(2S)-1-(fluoromethoxy)-4-methylpentan-2-yl]-5-(pyrrolidin-1-yl)pyridine-2-carboxamide]	8 nM
CCC(CC)(NC(=O)c1ccc(N2CC(F)(F)C2)c(OCC2CC2)n1)C(=O)OCCCF [Example 6, 3-Fluoropropyl 2-{[6-(cyclopropylmethoxy)-5-(3,3-difluoroazetidin-1-yl)pyridine-2-carbonyl]amino}-2-ethylbutanoate]	19 nM
CC(C)C[C@H](NC(=O)c1ccc(N2CCCC2)c(OCC2CC2)n1)C(=O)OCCCF [Example 15, 3-Fluoropropyl N-[6-(cyclopropylmethoxy)-5-(pyrrolidin-1-yl)pyridine-2-carbonyl]-L-leucinate]	40 nM
C[C@@H](COCCF)NC(=O)c1ccc(N2CCCC2)c(OCC2CC2)n1 [Example 23, 6-(Cyclopropylmethoxy)-N-[(2S)-1-(2-fluoroethoxy)propan-2-yl]-5-(pyrrolidin-1-yl)pyridine-2-carboxamide]	490 nM
